Data reported in ChEMBL document CHEMBL1201862, “PubChem BioAssay data set” (2004).
Active and inactive are the calls of the source.

How the values were obtained:
[1] = target: T1, Runt-related transcription factor 1/Core-binding factor subunit beta (Homo sapiens, UniProt Q01196+Q13951); assay: disruptors of Runt domain/CBFb-SMMHC interaction – biochemical, FRET, Cerulean-Runt, Venus-CBFb-SMMHC, uHTS, […] (AID 1434); assay type: protein assay
[2] = target: T1, Runt-related transcription factor 1/Core-binding factor subunit beta; assay: Runt domain/CBFb-SMMHC interaction disruptors – biochemical, TR-FRET (AID 1438); assay type: protein assay
[3] = target: Eukaryotic translation initiation factor 4H (Homo sapiens, UniProt Q15056); assay: inhibitors of translation initiation factor eIF4H – SAR follow-up (AID 435011); assay type: functional
[4] = target: Polyadenylate-binding protein 1 (Homo sapiens, UniProt P11940); assay: PABP inhibition in translation initiation, SAR follow-up (AID 435018); assay type: functional
Sequence of Polyadenylate-binding protein 1 (P11940 whole entry): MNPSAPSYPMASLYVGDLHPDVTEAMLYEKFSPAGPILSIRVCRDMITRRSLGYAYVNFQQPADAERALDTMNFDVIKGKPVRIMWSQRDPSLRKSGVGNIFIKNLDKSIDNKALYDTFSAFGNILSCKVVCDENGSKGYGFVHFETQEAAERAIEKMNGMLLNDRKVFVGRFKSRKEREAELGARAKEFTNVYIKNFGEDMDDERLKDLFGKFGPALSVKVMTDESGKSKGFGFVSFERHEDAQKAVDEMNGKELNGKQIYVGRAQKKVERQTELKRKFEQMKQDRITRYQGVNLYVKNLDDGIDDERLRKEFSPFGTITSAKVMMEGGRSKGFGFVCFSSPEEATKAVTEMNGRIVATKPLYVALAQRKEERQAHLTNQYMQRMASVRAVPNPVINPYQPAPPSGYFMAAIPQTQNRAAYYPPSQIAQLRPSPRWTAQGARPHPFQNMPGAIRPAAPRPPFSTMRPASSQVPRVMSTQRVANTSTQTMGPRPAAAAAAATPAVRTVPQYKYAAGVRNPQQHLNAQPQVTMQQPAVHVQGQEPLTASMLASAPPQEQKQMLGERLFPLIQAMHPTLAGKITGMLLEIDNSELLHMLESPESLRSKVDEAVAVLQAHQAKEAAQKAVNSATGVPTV

[5] = target: Hexokinase (Trypanosoma brucei, UniProt Q38C41); assay: Confirmation assay for inhibitors of Trypanosoma brucei hexokinase 1-Analogue-first series. [Related pubchem assays (depositor defined):AID1430, AID1632, AID2516, AID2560, AID2579, AID2600, AID449725, AID492951]; assay type: functional
Sequence of Hexokinase (Q38C41 whole entry): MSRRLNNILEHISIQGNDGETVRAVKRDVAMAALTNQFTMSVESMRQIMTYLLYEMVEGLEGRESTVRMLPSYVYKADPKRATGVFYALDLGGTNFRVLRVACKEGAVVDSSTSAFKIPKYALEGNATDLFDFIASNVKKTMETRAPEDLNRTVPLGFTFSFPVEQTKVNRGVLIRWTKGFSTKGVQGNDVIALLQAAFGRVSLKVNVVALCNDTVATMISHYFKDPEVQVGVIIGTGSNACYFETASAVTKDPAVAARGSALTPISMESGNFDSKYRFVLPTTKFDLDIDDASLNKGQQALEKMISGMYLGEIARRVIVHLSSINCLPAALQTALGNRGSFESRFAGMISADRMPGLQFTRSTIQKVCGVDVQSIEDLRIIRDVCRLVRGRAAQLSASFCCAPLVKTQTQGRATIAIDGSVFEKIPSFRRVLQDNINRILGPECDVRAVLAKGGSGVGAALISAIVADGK

[6] = target: Voltage-dependent T-type calcium channel subunit alpha-1H (Homo sapiens, UniProt O95180); assay: human CACNA1H calcium influx blockade – cell-based, synthetic library set 1, calcium flux (AID 493022); assay type: functional
Sequence of Voltage-dependent T-type calcium channel subunit alpha-1H (O95180 whole entry): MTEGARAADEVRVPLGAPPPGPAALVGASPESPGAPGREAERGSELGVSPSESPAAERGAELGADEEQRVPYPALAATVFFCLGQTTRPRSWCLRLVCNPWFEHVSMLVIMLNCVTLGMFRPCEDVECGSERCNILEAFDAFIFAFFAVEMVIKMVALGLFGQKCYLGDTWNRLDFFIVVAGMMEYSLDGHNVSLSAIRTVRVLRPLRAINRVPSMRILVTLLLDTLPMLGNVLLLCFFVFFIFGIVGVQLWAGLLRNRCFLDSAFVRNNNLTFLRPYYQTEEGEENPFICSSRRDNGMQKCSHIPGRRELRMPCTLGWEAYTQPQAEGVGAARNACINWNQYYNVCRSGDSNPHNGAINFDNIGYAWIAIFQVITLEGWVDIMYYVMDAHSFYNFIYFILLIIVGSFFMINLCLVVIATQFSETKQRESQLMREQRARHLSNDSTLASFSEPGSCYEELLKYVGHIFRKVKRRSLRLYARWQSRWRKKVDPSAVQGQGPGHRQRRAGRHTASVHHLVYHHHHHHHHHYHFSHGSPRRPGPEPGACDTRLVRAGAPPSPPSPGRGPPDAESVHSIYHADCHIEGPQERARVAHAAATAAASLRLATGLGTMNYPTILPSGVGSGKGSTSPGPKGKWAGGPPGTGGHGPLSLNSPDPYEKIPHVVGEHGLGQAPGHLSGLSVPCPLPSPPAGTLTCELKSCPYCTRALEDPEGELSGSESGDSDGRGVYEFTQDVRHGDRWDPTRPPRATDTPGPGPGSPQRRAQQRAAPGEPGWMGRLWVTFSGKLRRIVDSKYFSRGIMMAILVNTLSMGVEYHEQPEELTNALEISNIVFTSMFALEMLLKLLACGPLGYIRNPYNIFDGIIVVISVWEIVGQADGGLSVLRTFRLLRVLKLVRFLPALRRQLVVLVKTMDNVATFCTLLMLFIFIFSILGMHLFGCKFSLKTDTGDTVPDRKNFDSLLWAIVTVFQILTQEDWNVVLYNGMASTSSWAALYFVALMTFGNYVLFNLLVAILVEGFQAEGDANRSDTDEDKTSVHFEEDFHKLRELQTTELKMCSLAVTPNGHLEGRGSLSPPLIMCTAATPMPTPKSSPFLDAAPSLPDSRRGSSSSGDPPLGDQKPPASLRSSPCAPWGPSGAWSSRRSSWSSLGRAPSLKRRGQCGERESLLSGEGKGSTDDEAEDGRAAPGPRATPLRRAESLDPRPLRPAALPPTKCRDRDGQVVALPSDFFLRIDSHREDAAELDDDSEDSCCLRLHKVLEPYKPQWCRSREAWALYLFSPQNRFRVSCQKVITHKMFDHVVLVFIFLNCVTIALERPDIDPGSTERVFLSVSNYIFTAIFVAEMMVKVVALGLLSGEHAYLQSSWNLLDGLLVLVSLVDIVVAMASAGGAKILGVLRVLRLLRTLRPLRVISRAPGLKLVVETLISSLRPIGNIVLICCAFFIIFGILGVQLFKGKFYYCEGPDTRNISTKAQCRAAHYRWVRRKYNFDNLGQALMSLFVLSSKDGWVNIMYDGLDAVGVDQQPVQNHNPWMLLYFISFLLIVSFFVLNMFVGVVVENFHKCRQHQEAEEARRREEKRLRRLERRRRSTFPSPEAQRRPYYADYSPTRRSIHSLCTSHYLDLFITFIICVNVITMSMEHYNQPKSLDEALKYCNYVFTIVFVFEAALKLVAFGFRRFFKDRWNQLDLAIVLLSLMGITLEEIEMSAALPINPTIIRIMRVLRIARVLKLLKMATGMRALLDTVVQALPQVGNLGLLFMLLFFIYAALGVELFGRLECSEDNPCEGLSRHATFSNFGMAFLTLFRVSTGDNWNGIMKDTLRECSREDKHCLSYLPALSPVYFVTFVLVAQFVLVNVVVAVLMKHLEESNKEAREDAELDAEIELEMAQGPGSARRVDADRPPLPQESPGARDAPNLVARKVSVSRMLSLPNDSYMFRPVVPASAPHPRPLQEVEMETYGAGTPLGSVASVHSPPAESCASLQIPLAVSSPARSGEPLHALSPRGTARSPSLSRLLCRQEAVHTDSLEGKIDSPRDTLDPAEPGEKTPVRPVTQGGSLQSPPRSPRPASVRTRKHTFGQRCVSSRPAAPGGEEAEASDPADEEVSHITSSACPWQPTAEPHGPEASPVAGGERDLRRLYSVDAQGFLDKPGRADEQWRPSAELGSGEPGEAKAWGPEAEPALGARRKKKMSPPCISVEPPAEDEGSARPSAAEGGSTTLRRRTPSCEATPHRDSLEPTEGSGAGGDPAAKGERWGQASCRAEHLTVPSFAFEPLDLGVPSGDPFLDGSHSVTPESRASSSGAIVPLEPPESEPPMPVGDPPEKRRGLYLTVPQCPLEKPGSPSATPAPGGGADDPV

T1 sequence (Q01196 whole entry, the tested form may be a part): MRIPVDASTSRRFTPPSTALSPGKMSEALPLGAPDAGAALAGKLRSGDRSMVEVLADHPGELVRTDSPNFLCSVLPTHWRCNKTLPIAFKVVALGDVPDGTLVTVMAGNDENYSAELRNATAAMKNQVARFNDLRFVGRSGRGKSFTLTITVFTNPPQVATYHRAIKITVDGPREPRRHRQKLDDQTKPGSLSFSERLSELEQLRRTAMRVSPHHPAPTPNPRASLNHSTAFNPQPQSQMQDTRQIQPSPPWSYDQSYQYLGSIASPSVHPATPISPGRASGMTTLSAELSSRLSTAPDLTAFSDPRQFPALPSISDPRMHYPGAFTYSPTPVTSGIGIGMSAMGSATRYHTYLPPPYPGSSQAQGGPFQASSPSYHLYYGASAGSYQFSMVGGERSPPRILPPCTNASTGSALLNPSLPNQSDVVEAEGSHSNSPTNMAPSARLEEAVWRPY
T1 sequence (Q13951 whole entry, the tested form may be a part): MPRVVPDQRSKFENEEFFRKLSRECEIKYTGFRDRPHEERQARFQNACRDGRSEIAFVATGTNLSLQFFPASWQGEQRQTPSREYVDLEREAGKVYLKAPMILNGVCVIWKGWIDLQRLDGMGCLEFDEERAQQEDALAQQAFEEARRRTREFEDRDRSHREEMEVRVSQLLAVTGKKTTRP

## N#Cc1c2c(c(NCc3ccco3)n3c1nc1ccccc13)CCC2
[1]
  IC50: > 100 µM (inactive)
[2]
  IC50: > 100 µM (inactive)

## COc1ccc(NC(=O)C2CC(=O)N(C)/C(=N\c3ccccc3OC)S2)cc1 (stereo unspecified)
[3]
  IC50: > 100 µM (inactive)
[4]
  IC50: > 100 µM (inactive)

## O=C(Cn1sc2ccccc2c1=O)Nc1cccc(C(F)(F)F)c1
[5]
  IC50: > 25 µM (inactive)

## O=C(COc1ccc(F)cc1Cl)Nc1nnc(-c2ccc3c(c2)OCO3)o1
[6]
  EC50: 2.1 µM (active)
